Results from patent US4604381A, “4-demethoxy-13-dihydrodaunorubicin and use thereof” (Farmitalia Carlo Erba S.p.A., priority 1984, dated 1986).
In brackets after ≈: the same amount, converted by molar mass. Like-named read-outs stand apart in the source and are kept apart here.

What was measured:
[1] = system: HeLa cells; test: Colony inhibition test on HeLa cells (cytotoxicity); assay type: cell-based; conditions: Homo sapiens; for IC50: read-out: DI50 (dose causing 50% inhibition)
Protocol: Cytotoxicity. Colony inhibition test on HeLa cells.
The test was carried on HeLa according to the method described in J. Med. Chem., 1975, 18, 703. Exponentially growing cells (2 days after inoculation) were treated with several concentrations of daunorubicin, 4-demethoxydaunorubicin, and 4-demethoxy-13-dihydrodaunorubicin.
After 24 hours of exposure to the drugs, the cells were washed, trypsinized and plated (200 cells/plate). On day 6 the colonies containing more than 50 cells were counted. The dose causing 50% inhibition was calculated on the basis of dose-reponsive curves.
Colony inhibition on HeLa cells^a
^b % respect with control

[2] = system: Gross leukemia; test: Activity against Gross leukemia in C3H mice; assay type: in vivo; conditions: i.v. on day 1
Protocol: (§1) Activity against Gross leukemia
The experiments were performed on C3H mice inoculated i.v. with 2×10^6 leukemic cells/mouse.
as §1

[3] = system: leukemia P 388; test: Activity against ascitic leukemia P 388 in CDF-1 mice; assay type: in vivo; conditions: i.p. on day 1
Protocol: Activity against ascitic leukemia P 388
The experiments were performed on CDF-1 mice inoculated i.p. with 10^6 leukemic cells/mouse.

[4] = system: advanced mammary Carcinoma; test: Activity against advanced mammary carcinoma in C3H female mice; assay type: in vivo; conditions: once a week × 4 from palpable tumor; for growth % on day 48: controls 3476
Protocol: Activity against advanced mammary Carcinoma^a
The experiments were performed on C3H female mice inoculated
with 2 × 10^6 tumor cells/mouse
^a treatment once a week × 4, starting when the tumor was […]

[5] = HeLa, 24 h, read-out: % Colonies (% respect with control)

## CC(O)[C@]1(O)Cc2c(O)c3c(c(O)c2[C@@H](O[C@H]2C[C@H](N)[C@H](O)[C@H](C)O2)C1)C(=O)c1ccccc1C3=O (stereo partly shown) [4-demethoxy-13-dihydrodaunorubicin]
[1]; [5]
  activity at 0.00156 µg/mL: 100%
  activity at 0.0031 µg/mL: 45%
  activity at 0.0062 µg/mL: 9%
  activity at 0.0125 µg/mL: 0%
[1]; HeLa, 24 h
  IC50: 3 ng/mL (≈ 0.00601 µM)
[2]; 0.84 mg/kg
  T/C %: 200%
  toxic deaths: 0/10
[2]; 1.26 mg/kg
  T/C %: 250%
  toxic deaths: 0/10
[2]; 1.9 mg/kg
  T/C %: 258%
  toxic deaths: 0/10
[3]; 0.14 mg/kg
  T/C %: 130%
  toxic deaths: 0/10
[3]; 0.22 mg/kg
  T/C %: 160%
  toxic deaths: 0/10
[3]; 0.33 mg/kg
  T/C %: 170%
  toxic deaths: 0/10
[3]; 0.5 mg/kg
  T/C %: 170%
  toxic deaths: 3/10
[4]; 0.6 mg/kg
  inhibition % on day 48: 0%
  growth % on day 48: 5124%
[4]; 0.8 mg/kg
  inhibition % on day 48: 3%
  growth % on day 48: 3374%
[4]; 1.2 mg/kg
  inhibition % on day 48: 65%
  growth % on day 48: 1201%

## CC(=O)[C@]1(O)Cc2c(O)c3c(c(O)c2[C@@H](O[C@H]2C[C@H](N)[C@H](O)[C@H](C)O2)C1)C(=O)c1ccccc1C3=O [4-demethoxydaunorubicin]
[1]; HeLa, 1.5 ng/ml, 24 hours exposure, read-out: % Colonies (% respect with control)
  activity at 0.0015 µg/mL: 126%
[1]; HeLa, 3.1 ng/ml, 24 hours exposure, read-out: % Colonies (% respect with control)
  activity at 0.0031 µg/mL: 73%
[1]; HeLa, 6.2 ng/ml, 24 hours exposure, read-out: % Colonies (% respect with control)
  activity at 0.0062 µg/mL: 37%
[1]; HeLa, 12.5 ng/ml, 24 hours exposure, read-out: % Colonies (% respect with control)
  activity at 0.0125 µg/mL: 10%
[1]; HeLa, 25 ng/ml, 24 hours exposure, read-out: % Colonies (% respect with control)
  activity at 0.025 µg/mL: 0%
[1]; HeLa colony inhibition, 24 hours exposure
  IC50: 5.5 ng/mL (≈ 0.0111 µM)
[2]; 1.9 mg/kg
  T/C %: 233%
  toxic deaths: 0/10
[2]; 2.5 mg/kg
  T/C %: 233%
  toxic deaths: 0/10
[2]; 3.3 mg/kg
  T/C %: 266%
  toxic deaths: 0/10
[3]; 0.33 mg/kg
  T/C %: 150%
  toxic deaths: 0/10
[3]; 0.5 mg/kg
  T/C %: 170%
  toxic deaths: 0/10
[3]; 0.75 mg/kg
  T/C %: 155%
  toxic deaths: 3/10
[4]; 0.8 mg/kg
  inhibition % on day 48: 0%
  growth % on day 48: 4322%
[4]; 1.2 mg/kg
  inhibition % on day 48: 42%
  growth % on day 48: 2029%

## COc1cccc2c1C(=O)c1c(O)c3c(c(O)c1C2=O)C[C@@](O)(C(C)=O)C[C@@H]3O[C@H]1C[C@H](N)[C@H](O)[C@H](C)O1 [daunorubicin]
[1]; [5]
  activity at 0.0062 µg/mL: 92%
  activity at 0.0125 µg/mL: 32%
  activity at 0.025 µg/mL: 3%
[1]; HeLa, 24 h
  IC50: 11 ng/mL (≈ 0.0209 µM)
[2]; 10 mg/kg
  T/C %: 150%
  toxic deaths: 0/10
[2]; 15 mg/kg
  T/C %: 183%
  toxic deaths: 0/10
[2]; 22.5 mg/kg
  T/C %: 233%
  toxic deaths: 0/10
[3]; 4.4 mg/kg
  T/C %: 180%
  toxic deaths: 0/10
[3]; 6.6 mg/kg
  T/C %: 168%
  toxic deaths: 2/10
